Assay results from patent US20260092061A1, “COMPOUNDS FOR TARGETED PROTEIN DEGRADATION” (Amphista Therapeutics Limited, priority 2022, published 2026).

Legend:
BRD9 [1] = target: T1, BRD9 (Homo sapiens, UniProt Q9H8M2); assay: Degradation of BRD9 (IF), immunofluorescence in MV4-11 cells, 24 hours (Assay Protocol 2); type: cell-based; design: A suspension of MV4-11 cells (ATCC CRL-9591) was prepared; host or cells: MV4-11
T1 sequence (Q9H8M2 1-597): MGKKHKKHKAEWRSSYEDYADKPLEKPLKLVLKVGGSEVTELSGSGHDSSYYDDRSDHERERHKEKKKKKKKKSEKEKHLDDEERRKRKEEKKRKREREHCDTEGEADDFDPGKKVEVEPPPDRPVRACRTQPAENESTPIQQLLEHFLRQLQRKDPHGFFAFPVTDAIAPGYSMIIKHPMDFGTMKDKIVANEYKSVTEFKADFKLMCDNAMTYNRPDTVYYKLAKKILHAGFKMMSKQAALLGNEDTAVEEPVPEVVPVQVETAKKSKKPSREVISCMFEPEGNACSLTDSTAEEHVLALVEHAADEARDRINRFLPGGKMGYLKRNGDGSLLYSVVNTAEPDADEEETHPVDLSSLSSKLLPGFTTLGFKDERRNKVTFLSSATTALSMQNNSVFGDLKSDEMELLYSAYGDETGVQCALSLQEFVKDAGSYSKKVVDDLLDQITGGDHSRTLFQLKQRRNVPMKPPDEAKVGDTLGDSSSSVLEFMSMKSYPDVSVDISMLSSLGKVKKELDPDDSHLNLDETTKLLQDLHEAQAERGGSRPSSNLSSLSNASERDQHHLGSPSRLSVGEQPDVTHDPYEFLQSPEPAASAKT
Outline: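 MV4-11 cells treated with compound 24 h at 37° C., then fixed, permeabilised and immunostained for BRD9 (anti-BRD9 E4Q3F, Alexa 647 secondary, Hoechst counterstain). High-content imaging quantified nuclear BRD9 signal; % BRD9 remaining normalised to DMSO and 100 nM CFT-8634 controls.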

BRD9 [2] = target: T1, BRD9; assay: BRD9 degradation, HiBiT-BRD9 KI HEK293 (LgBiT) cells, NanoGlo Lytic Endpoint assay (Assay Protocol 1); type: cell-based; conditions: BRD9 degradation; for Dmax / Dmax at 1 µM: HEK293; for Dmax at 1 µM: 1 μM compound at 6 h of treatment, read-out: Assay 1 Dmax
Outline: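 HiBiT-tagged BRD9 knock-in HEK293 (LgBiT) cells exposed to compounds for 6 h at 37 °C, 5% CO2. Residual BRD9 measured by HiBiT lytic luminescence. % BRD9 remaining normalised to DMSO-treated cells (high) and no-cell wells (low).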

[3] = Assay protocol 2, BRD9 degradation, read-out: DC50
[4] = MV4-11, Assay protocol 2, BRD9 degradation, read-out: Dmax
[5] = Assay protocol 1, read-out: DC50
[6] = Assay protocol 1, read-out: Dmax
[7] = MV4-11, 24 h, Table 2, BRD9 degradation (IF), Assay Protocol 2, MV4-11 cells, read-out: Assay 2 DCmax
[8] = Table 2, BRD9 degradation (IF), Assay Protocol 2, MV4-11 cells, read-out: Assay 2 DC50
[9] = Table 2, Assay Protocol 1, 6 h of treatment, read-out: Assay 1 DC50
[10] = MV4-11, Table 4, BRD9 degradation, determined according to Assay Protocol 2, read-out: Dmax^2
[11] = Table 4, BRD9 degradation, determined according to Assay Protocol 2, read-out: DC50^2
[12] = Table 4, determined according to Assay Protocol 1, read-out: DC50^1
[13] = Table 4, determined according to Assay Protocol 1, read-out: Dmax^1

DC50 (BRD9 [1]; [3]) | Dmax (BRD9 [1]; [4]) | DC50 (BRD9 [2]; [5]) | Dmax (BRD9 [2]; [6]) | Dmax (BRD9 [1]; [7]) | Dmax at 1 µM (BRD9 [2]; Table 2, Assay Protocol 1) | DC50 (BRD9 [2]; [9]) | Structure (SMILES) | further results
1.25 to 10 nM | > 75% | 1.25 to 10 nM | > 75% | – | – | – | COc1cc(-c2cn(C)c(=O)c(C)c2C)cc(OC)c1CN(C)C1CCN(C(=O)/C(C#N)=C/C23CC(C2)C3)CC1 (mixture of isomers) [Compound B187, (E/Z)-3-(bicyclo[1.1.1]pentan-1-yl)-2-(4-((2,6-dimethoxy-4-(1,4,5-trimethyl-6-oxo-1,6-dihydropyridin-3-yl)benzyl)(methyl)amino)piperidine-1-carbonyl)acrylonitrile] | –
> 1000 nM | 40 to 70% | > 1000 nM | 40 to 70% | – | – | – | COc1cc(-c2cn(C)c(=O)c(C)c2C)cc(OC)c1CN1CCN(Cc2cccc3c2CCN(C(=O)/C(C#N)=C/C2(C)CC2)C3C)CC1 (mixture of isomers) [Compound C27, (E/Z)-2-(5-((4-(2,6-dimethoxy-4-(1,4,5-trimethyl-6-oxo-1,6-dihydropyridin-3-yl)benzyl)piperazin-1-yl)methyl)-1-methyl-1,2,3,4-tetrahydroisoquinoline-2-carbonyl)-3-(1-methylcyclopropyl)acrylonitrile] | –
– | – | – | – | 40 to 70% | 40 to 70% | < 1.25 nM | COc1cc(-c2cn(C)c(=O)c3cnccc23)cc(OC)c1CN1CCN(Cc2cccc3c2CCN(C(=O)/C(C#N)=C/c2nccs2)[C@@H]3C)CC1 (single isomer, unassigned) [Compound A14, (E/Z)-2-(5-((4-(2,6-dimethoxy-4-(2-methyl-1-oxo-1,2-dihydro-2,7-naphthyridin-4-yl)benzyl)piperazin-1-yl)methyl)-1-methyl-1,2,3,4-tetrahydroisoquinoline-2-carbonyl)-3-(thiazol-2-yl)acrylonitrile] | DC50 (BRD9 [1]; [8]): < 1.25 nM
– | – | – | – | 40 to 70% | 40 to 70% | 1.25 to 10 nM | COc1cc(-c2cn(C)c(=O)c3cnccc23)cc(OC)c1CN1CCN(Cc2cccc3c2CCN(C(=O)/C(C#N)=C/c2nccs2)[C@H]3C)CC1 (single isomer, unassigned) [Compound A15] | DC50 (BRD9 [1]; [8]): < 1.25 nM
– | – | – | – | 40 to 70% | 40 to 70% | < 1.25 nM | COc1cc(-c2cn(C)c(=O)c3cnccc23)cc(OC)c1CN1CCN(Cc2cccc3c2CCN(C(=O)/C(C#N)=C/C(C)(C)C)[C@@H]3C)CC1 (single isomer, unassigned) [Compound A25, (E/Z)-2-(5-((4-(2,6-dimethoxy-4-(2-methyl-1-oxo-1,2-dihydro-2,7-naphthyridin-4-yl)benzyl)piperazin-1-yl)methyl)-1-methyl-1,2,3,4-tetrahydroisoquinoline-2-carbonyl)-4,4-dimethylpent-2-enenitrile] | –
– | – | – | – | 40 to 70% | > 75% | 1.25 to 10 nM | COc1cc(-c2cn(C)c(=O)c(C)c2C)cc(OC)c1CN1CCCN(Cc2cccc3c2CCN(C(=O)/C(C#N)=C/C2(F)CC2)C3C)CC1 (single isomer, unassigned) [Compound A69, (E/Z)-2-(5-((4-(2,6-dimethoxy-4-(1,4,5-trimethyl-6-oxo-1,6-dihydropyridin-3-yl)benzyl)-1,4-diazepan-1-yl)methyl)-1-methyl-1,2,3,4-tetrahydroisoquinoline-2-carbonyl)-3-(1-fluorocyclopropyl)acrylonitrile] | DC50 (BRD9 [1]; [8]): 25 to 300 nM
1.25 to 10 nM | 40 to 70% | < 1.25 nM | 40 to 70% | – | – | – | COc1cc(-c2cn(C)c(=O)c(C)c2C)cc(OC)c1CN1CCC2(CC1)CN(c1cccc(C3CCCN3C(=O)C(C#N)=CC(C)(C)C)c1)C2 (single isomer, unassigned) [Compound B43, 2-(2-(3-(7-(2,6-dimethoxy-4-(1,4,5-trimethyl-6-oxo-1,6-dihydropyridin-3-yl)benzyl)-2,7-diazaspiro[3.5]nonan-2-yl)phenyl)pyrrolidine-1-carbonyl)-4,4-dimethylpent-2-enenitrile] | –
25 to 1000 nM | 40 to 70% | – | 25 to 40% | – | – | – | COc1cc(-c2cn(C)c(=O)c(C)c2C)cc(OC)c1CN1CCN(c2cccc3c2CCN(C(=O)/C(C#N)=C/c2cccc(Br)n2)C3C)CC1 (single isomer, unassigned) [Compound C28, (E/Z)-3-(6-bromopyridin-2-yl)-2-(5-(4-(2,6-dimethoxy-4-(1,4,5-trimethyl-6-oxo-1,6-dihydropyridin-3-yl)benzyl)piperazin-1-yl)-1-methyl-1,2,3,4-tetrahydroisoquinoline-2-carbonyl)acrylonitrile] | –
– | 40 to 70% | – | > 75% | – | – | – | COc1cc(-c2cn(C)c(=O)c(C)c2C)cc(OC)c1CN1CCC(Oc2cccc3c2CCN(C(=O)/C(C#N)=C/c2cccc(C(F)(F)F)n2)C3C)CC1 (stereo not shown) [B22] | –
– | – | – | – | – | – | – | COc1cc(-c2cn(C)c(=O)c(C)c2C)cc(OC)c1CN(C)C(=O)/C(C#N)=C/c1cccc(Br)n1 [BRD9ab, (E/Z)-3-(6-bromopyridin-2-yl)-2-cyano-N-(2,6-dimethoxy-4-(1,4,5-trimethyl-6-oxo-1,6-dihydropyridin-3-yl)benzyl)-N-methylacrylamide] | Dmax (BRD9 [1]; [10]): 50 to 70%; DC50 (BRD9 [1]; [11]): < 25 nM; DC50 (BRD9 [2]; [12]): < 25 nM
– | – | – | – | – | – | – | COc1cc(-c2cn(C)c(=O)c(C)c2C)cc(OC)c1CN1CCN(C(=O)/C(C#N)=C/C(C)(C)C)CC12CC2 [BRD9f, (E/Z)-2-(4-(2,6-dimethoxy-4-(1,4,5-trimethyl-6-oxo-1,6-dihydropyridin-3-yl)benzyl)-4,7-diazaspiro[2.5]octane-7-carbonyl)-4,4-dimethylpent-2-enenitrile] | Dmax (BRD9 [1]; [10]): 50 to 70%; DC50 (BRD9 [1]; [11]): < 25 nM; Dmax (BRD9 [2]; [13]): 50 to 70%; DC50 (BRD9 [2]; [12]): < 25 nM
– | – | – | – | – | – | – | COc1cc(-c2cn(C)c(=O)c(C)c2C)cc(OC)c1C(=O)N(C)C1CCN(C(=O)/C(C#N)=C/C(C)(C)C)CC1 [BRD9u] | Dmax (BRD9 [1]; [10]): 30 to 50%; DC50 (BRD9 [1]; [11]): < 25 nM; Dmax (BRD9 [2]; [13]): 30 to 50%
– | – | – | – | – | – | – | COc1cc(-c2cn(C)c(=O)c3ccsc23)cc(OC)c1CN1CCN(C(=O)/C(C#N)=C/C(C)(C)C)CC1 [BRD9w, (E/Z)-2-(4-(2,6-dimethoxy-4-(5-methyl-4-oxo-4,5-dihydrothieno[3,2-c]pyridin-7-yl)benzyl)piperazine-1-carbonyl)-4,4-dimethylpent-2-enenitrile] | Dmax (BRD9 [1]; [10]): > 70%; DC50 (BRD9 [1]; [11]): < 25 nM; Dmax (BRD9 [2]; [13]): > 70%; DC50 (BRD9 [2]; [12]): < 25 nM
– | – | – | – | < 50% | 40 to 70% | 1.25 to 10 nM | COc1cc(-c2cn(C)c(=O)c3cnccc23)cc(OC)c1CN1CCC(N(C)c2cccc3c2CCN(C(=O)/C(C#N)=C/C(C)(C)C)C3C)CC1 (stereo not shown) [Compound A30] | –
1.25 to 10 nM | > 75% | 10 to 25 nM | 70 to 75% | – | – | – | COc1cc(-c2cn(C)c(=O)c(C)c2C)cc(OC)c1CN1CCN(C(=O)c2cccc(C3CCCN3C(=O)/C(C#N)=C/c3nccs3)c2)CC1 (stereo not shown) [Compound B23] | –
< 1.25 nM | > 75% | 1.25 to 10 nM | > 75% | – | – | – | COc1cc(-c2cn(C)c(=O)c(C)c2C)cc(OC)c1CN1CCN(Cc2cccc(C3CCCN3C(=O)/C(C#N)=C/c3cccc(C(F)(F)F)n3)c2)CC1 (stereo not shown) [Compound B26] | –
1.25 to 10 nM | > 75% | – | 40 to 70% | – | – | – | COc1ccc([C@@H]2CN(C(=O)/C(C#N)=C/c3nccs3)C[C@H]2C(=O)N2CCN(Cc3c(OC)cc(-c4cn(C)c(=O)c(C)c4C)cc3OC)CC2)cc1 [Compound B27] | –
– | 40 to 70% | – | 25 to 40% | – | – | – | COc1cc(-c2cn(C)c(=O)c(C)c2C)cc(OC)c1CN1CCN(C(=O)[C@@H]2CN(C(=O)/C(C#N)=C/c3nccs3)C[C@H]2c2ccccc2)CC1 [Compound B28] | –
< 1.25 nM | > 75% | < 1.25 nM | > 75% | – | – | – | COc1cc(-c2cn(C)c(=O)c(C)c2C)cc(OC)c1CN1CCN(Cc2cccc(C3CCCN3C(=O)/C(C#N)=C/c3nc(C(F)(F)F)cs3)c2)CC1 (stereo not shown) [Compound B56] | –

Structure (SMILES) | DC50 (BRD9 [1]; [3]) | Dmax (BRD9 [1]; [4]) | DC50 (BRD9 [2]; [5]) | Dmax (BRD9 [2]; [6]) | Dmax (BRD9 [1]; [7]) | Dmax at 1 µM (BRD9 [2]; Table 2, Assay Protocol 1) | DC50 (BRD9 [2]; [9]) | further results
COc1cc(-c2cn(C)c(=O)c3cnccc23)cc(OC)c1CN1C2CCC1CN(Cc1cccc3c1CCN(C(=O)/C(C#N)=C/C(C)(C)C)C3C)C2 (stereo not shown) [Compound A49] | – | – | – | – | 40 to 70% | 40 to 70% | 1.25 to 10 nM | DC50 (BRD9 [1]; [8]): < 1.25 nM
